Values quoted from earlier work as cited in US20020132296A1, “Human Ste20-like stress activated serine/threonine kinase” (priority 1997, published 2002).

What was measured:
[1] = tested on: TNF-stimulated HUVECs
[2] = tested on: LPS-stimulated macrophages

C[S+]([O-])c1ccc(-c2nc(-c3ccncc3)c(-c3ccc(F)cc3)[nH]2)cc1 (centres unmarked) [SB203580]
production of TNF, IL-6 and IL-8 [1]: inhibit | production of TNF and IL-1 [2]: inhibit
